Experimental data: ChEMBL document CHEMBL3774329, “Synthesis and Evaluation of Oxyguanidine Analogues of the Cysteine Protease Inhibitor WRR-483 against Cruzain” (ACS Med Chem Lett, 2016)
Calls of active or inactive are those of the source. No cut-off for these calls is given here.

Assays:
[1] = biological target: Cruzipain (Trypanosoma cruzi) (UniProt P25779); assay: Inhibition of His-tagged recombinant Trypanosoma cruzi cruzain using Z-Phe-Arg-AMC as substrate assessed as ratio of Kinact to Ki preincubated for 5 mins at pH 8 by spectrofluorometric analysis
Cruzipain (Trypanosoma cruzi), sequence (P25779 123-467 limits assumed): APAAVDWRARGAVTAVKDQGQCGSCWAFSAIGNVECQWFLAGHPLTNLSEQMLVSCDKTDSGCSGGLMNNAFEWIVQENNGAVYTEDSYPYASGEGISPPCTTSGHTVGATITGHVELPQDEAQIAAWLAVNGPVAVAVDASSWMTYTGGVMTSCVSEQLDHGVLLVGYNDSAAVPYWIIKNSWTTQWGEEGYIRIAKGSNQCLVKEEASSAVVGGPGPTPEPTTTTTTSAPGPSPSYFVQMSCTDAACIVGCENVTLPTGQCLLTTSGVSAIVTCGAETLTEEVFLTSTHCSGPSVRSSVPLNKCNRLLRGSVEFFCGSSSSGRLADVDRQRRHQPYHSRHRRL

[2] = biological target: Cruzipain (Trypanosoma cruzi) (UniProt P25779); assay: Ratio of Kinact/Ki at pH 8 to Kinact/Ki at pH 5.5 for inhibition of His-tagged recombinant Trypanosoma cruzi cruzain
[3] = biological target: Cruzipain (Trypanosoma cruzi) (UniProt P25779); assay: Inhibition of His-tagged recombinant Trypanosoma cruzi cruzain using Z-Phe-Arg-AMC as substrate assessed as ratio of Kinact to Ki preincubated for 5 mins at pH 5.5 by spectrofluorometric analysis
[4] = biological target: T1, Cysteine proteinase 1 (Entamoeba histolytica) (UniProt Q01957); assay: Inhibition of Entamoeba histolytica cysteine protease1 using ZRR-AMC peptide as substrate assessed as release of AMC at 250 pM to 1 uM incubated for 15 mins by fluorometric analysis
T1 sequence (whole entry): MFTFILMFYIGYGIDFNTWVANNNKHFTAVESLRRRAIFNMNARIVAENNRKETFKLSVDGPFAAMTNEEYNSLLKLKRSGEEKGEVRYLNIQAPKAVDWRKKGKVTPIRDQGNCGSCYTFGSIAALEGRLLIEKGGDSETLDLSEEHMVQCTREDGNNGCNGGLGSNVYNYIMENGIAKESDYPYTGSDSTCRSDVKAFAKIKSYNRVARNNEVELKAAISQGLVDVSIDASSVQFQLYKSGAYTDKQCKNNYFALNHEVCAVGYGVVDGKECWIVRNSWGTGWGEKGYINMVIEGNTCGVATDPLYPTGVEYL

[5] = biological target: Cytochrome P450 2D6 (Homo sapiens, UniProt P10635); assay: Inhibition of CYP2D6 in human liver microsomes at 1 to 10 uM after 10 mins in presence of NADPH; format: ADME
Cytochrome P450 2D6, sequence (P10635 whole entry): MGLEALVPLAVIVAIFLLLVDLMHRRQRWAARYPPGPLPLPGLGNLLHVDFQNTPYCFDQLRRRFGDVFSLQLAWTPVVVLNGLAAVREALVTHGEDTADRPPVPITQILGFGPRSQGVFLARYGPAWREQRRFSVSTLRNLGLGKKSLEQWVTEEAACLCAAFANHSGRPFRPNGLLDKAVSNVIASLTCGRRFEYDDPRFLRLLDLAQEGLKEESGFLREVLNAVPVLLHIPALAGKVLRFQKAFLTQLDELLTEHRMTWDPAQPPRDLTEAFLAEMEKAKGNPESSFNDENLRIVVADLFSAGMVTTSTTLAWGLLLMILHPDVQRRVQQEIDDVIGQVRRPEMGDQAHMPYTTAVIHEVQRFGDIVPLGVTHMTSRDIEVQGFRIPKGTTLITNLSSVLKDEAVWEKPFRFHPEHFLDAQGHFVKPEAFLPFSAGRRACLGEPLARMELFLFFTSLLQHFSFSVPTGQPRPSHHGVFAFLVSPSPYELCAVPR

[6] = system: Rattus norvegicus; assay: Drug metabolism in Sprague-Dawley rat assessed as WRR-671 formation at 3 mg/kg, iv over 8 hrs by LC-MS/MS analysis; format: ADME, organism-based; conditions: in vivo
[7] = system: Liver microsome; assay: Stability of compound in rat liver microsomes at 1 uM measured at 5 to 60 mins in presence of NADPH by LC-MS/MS analysis; format: ADME
[8] = system: Liver microsome; assay: Stability of compound in human liver microsomes at 1 uM measured at 5 to 60 mins in presence of NADPH by LC-MS/MS analysis; format: ADME
[9] = Stability of compound in mouse liver microsomes at 1 uM measured at 5 to 60 mins in presence of NADPH by LC-MS/MS analysis; format: ADME
[10] = system: Trypanosoma cruzi; assay: Antiparasitic activity against Trypanosoma cruzi CA-I/72 trypomastigote infected in mouse C2C12 cells after 72 hrs by DAPI-staining based microscopic analysis; format: functional, organism-based; conditions: CA-I/72, C2C12, 72 h
[11] = biological target: Cruzipain (Trypanosoma cruzi) (UniProt P25779); assay: Ratio of Kinact/Ki at pH 5.5 to Kinact/Ki at pH 8 for inhibition of His-tagged recombinant Trypanosoma cruzi cruzain
[12] = system: Plasma; assay: Drug degradation in C57BL/6 mouse plasma assessed as proteolytic cleavage in presence of EDTA by LC-MS/MS analysis; format: ADME, cell-free
[13] = biological target: Cytochrome P450 2C9 (Homo sapiens, UniProt P11712); assay: Inhibition of CYP2C9 in human liver microsomes at 1 to 10 uM after 10 mins in presence of NADPH; format: ADME
Cytochrome P450 2C9, sequence (P11712 whole entry): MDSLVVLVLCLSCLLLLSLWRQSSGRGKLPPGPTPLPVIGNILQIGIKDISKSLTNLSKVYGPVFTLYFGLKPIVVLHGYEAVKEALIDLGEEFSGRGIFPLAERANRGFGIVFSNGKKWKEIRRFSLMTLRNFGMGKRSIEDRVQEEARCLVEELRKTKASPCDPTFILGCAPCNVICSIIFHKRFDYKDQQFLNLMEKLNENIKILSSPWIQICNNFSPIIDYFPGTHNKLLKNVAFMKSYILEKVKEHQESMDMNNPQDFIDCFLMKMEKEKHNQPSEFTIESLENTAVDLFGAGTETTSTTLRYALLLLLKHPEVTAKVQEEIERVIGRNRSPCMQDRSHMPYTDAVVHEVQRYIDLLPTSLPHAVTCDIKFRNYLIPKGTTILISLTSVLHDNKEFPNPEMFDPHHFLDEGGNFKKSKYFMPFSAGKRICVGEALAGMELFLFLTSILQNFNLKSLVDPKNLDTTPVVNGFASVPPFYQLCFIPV

[14] = system: Rattus norvegicus; assay: Drug level in Sprague-Dawley rat treated with WRR-668 at 3 mg/kg, iv over 8 hrs by LC-MS/MS analysis; format: ADME, organism-based; conditions: in vivo

Row | Ratio [1] [M⁻¹ s⁻¹] | Ratio [2] | Ratio [3] [M⁻¹ s⁻¹] | inhibition (INH) [5] | SMILES | other results
1 | 59700 | > 3 | 11000 |  | CN1CCN(C(=O)N[C@@H](CCCCNC(=N)N)C(=O)N[C@H](/C=C/S(=O)(=O)c2ccccc2)CCc2ccccc2)CC1 | 
2 | 308000 |  | 214000 | Active | CN1CCN(C(=O)N[C@@H](CCCONC(=N)N)C(=O)N[C@H](/C=C/S(=O)(=O)c2ccccn2)CCc2ccccc2)CC1 | inhibition [4]: Active; Drug metabolism [6]: metabolite_detected; Stability [7]: Stable; Stability [8]: Stable; Stability [9]: Stable
3 | 53400 |  | 43300 | Active | CN1CCN(C(=O)N[C@@H](CCCONC(=N)N)C(=O)N[C@H](/C=C/S(=O)(=O)c2ccccc2)CCc2ccccc2)CC1.Cl.Cl | 
4 | 138000 |  | 93100 |  | CN1CCN(C(=O)N[C@@H](CCONC(=N)N)C(=O)N[C@H](/C=C/S(=O)(=O)c2ccccc2)CCc2ccccc2)CC1 | 
5 | 3100 |  | 8100 |  | CN1CCN(C(=O)N[C@@H](CCCNC(=N)N)C(=O)N[C@H](/C=C/S(=O)(=O)c2ccccn2)CCc2ccccc2)CC1 | inhibition [4]: Active
6 | 65700 | > 3 | 9100 | Active | CONC(=N)NCCC[C@H](NC(=O)N1CCN(C)CC1)C(=O)N[C@H](/C=C/S(=O)(=O)c1ccccc1)CCc1ccccc1 | EC50 [10]: 0.269 µM
7 | 32500 |  | 158000 |  | CN1CCN(C(=O)N[C@@H](Cc2ccccc2)C(=O)N[C@H](/C=C/S(=O)(=O)c2ccccc2)CCc2ccccc2)CC1 | Ratio [11]: > 5
8 | 113000 | > 3 | 36600 |  | CN1CCN(C(=O)N[C@@H](CCCNC(=N)N)C(=O)N[C@H](/C=C/S(=O)(=O)c2ccccc2)CCc2ccccc2)CC1 | 
9 | 1.17e+06 | > 3 | 25000 | Active | CONC(=N)NCCC[C@H](NC(=O)N1CCN(C)CC1)C(=O)N[C@H](/C=C/S(=O)(=O)c1ccccn1)CCc1ccccc1 | inhibition [4]: Active; Stability [12]: Unstable; inhibition (INH) [13]: Active; Stability [7]: Stable; Stability [8]: Stable; Stability [9]: Stable
10 | 1500 |  | 320000 |  | CN1CCN(C(=O)N[C@@H](CCCONC(=N)N)C(=O)N[C@H](/C=C/S(=O)(=O)c2ncccn2)CCc2ccccc2)CC1 | Ratio [11]: > 5
11 |  |  |  |  | CN1CCN(C(=O)N[C@@H](CCCO)C(=O)N[C@H](/C=C/S(=O)(=O)c2ccccc2)CCc2ccccc2)CC1 | Drug metabolism [14]: metabolite_detected
